Key:
[1] = system: Human Papilloma Virus (HPV); assay: Comparative tests: cervical lesions caused by HPV, 44 female patients, observation after 10 days; format: in vivo; settings: undiluted composition
Procedure: The hereunder mentioned comparative tests are aimed to establish observation(s) after 10 days on 44 female human patients by Controlled Clinical Trial on Cervical Lesions (wounds) caused by the Human Papilloma Virus (HPV) which is a double stranded DNA non enveloped virus. […] In order to establish the non-activity of possible placebo's to be used in the clinical trial, 44 HPV infected patients were treated with a one-time dose of Placebos compositions.

[2] = system: ES strain of lymphomatosis virus; settings: US 3,429,971 table 2; cited from earlier work
[3] = system: human DNA viruses (HSV, ADV) and RNA viruses (CVB1, EV71); settings: each component used alone; cited from earlier work
adenovirus type 6 = settings: in vitro; cited from earlier work

Molecule: C=C(C)[C@H](CO)CC=C(C)C [Placebo 21, Lavendulol]
- Observation(s) after 10 days: regression of lesions on the surface of the cervix [1]: No regression of lesions

Molecule: CC(C)=CCC/C(C)=C/CO [Trans-2,6-dimethyl-2,6,octadiene-8-ol, (2E)-3,7-dimethylocta-2,6-dien-1-ol]
- No. cures [2]: 0

Molecule: CC(C)[C@]12CC(=O)[C@H](C)[C@H]1C2 [alpha-thujone]
- antiviral activity [3]: No activity

Molecule: C=C1CC/C=C(\C)CC[C@@H]2[C@@H]1CC2(C)C [beta-caryophylene]
- antiviral activity [3]: No activity

Molecule: C=CC(=C)CCC=C(C)C [beta-myrcene]
- antiviral activity [3]: No activity

Molecule: C=C(C)C1CC=C(C)C(=O)C1 (stereo not shown) [carvone]
- antiviral activity [3]: No activity
- antiviral activity against adenovirus type 6 (adenovirus type 6): antiviral activity

Molecule: CC12CCC(CC1)C(C)(C)O2 [cineole]
- antiviral activity [3]: No activity

Molecule: CC(C)=CCCC(C)=CCCC(C)=CCO [farnesol]
- antiviral activity [3]: No activity

Molecule: CC12CCC(C1)C(C)(C)C2=O (stereo not shown) [fenchone]
- antiviral activity [3]: No activity

Molecule: CC(C)=CCC/C(C)=C/CO [geraniol]
- antiviral activity [3]: No activity

Molecule: (R)-Carvone + (S)-Carvone [Placebo 3]
- Observation(s) after 10 days: regression of lesions on the surface of the cervix [1]: No regression of lesions

Molecule: (cis+trans)-1,2-(+)-Limonene oxide [Placebo 18]
- Observation(s) after 10 days: regression of lesions on the surface of the cervix [1]: No regression of lesions
